Experiment: Inhibition of N-terminal MBP tagged and C-terminal 6x-His-tagged ANAT (unknown origin) expressed in Escherichia coli BL21(DE3) assessed as reduction in coenzyme A production using DTNB incubated up to 30 mins in presence of 0.1%Triton X-100
Parameters: species or system Homo sapiens

| IC50 | Structure (SMILES) |
| --- | --- |
| 6.1 µM | CCOC(=O)c1sc(NC(=O)COC(=O)Cn2c(=O)cnc3ccccc32)cc1C |
| 4.82 µM | Nc1cc(N)nc(SCc2ncc(-c3ccc(F)cc3)o2)n1 |
| 1.25 µM | Cc1c(C(=O)O)sc2[nH]c(=O)cc(CSc3nnc(C4CC4)[nH]3)c12 |
| 2.71 µM | Cc1nnc(SCc2nnc(-c3c(-c4ccccc4)noc3C)o2)s1 |

— ChEMBL document CHEMBL4725362, “Discovery of Novel Inhibitors of a Critical Brain Enzyme Using a Homology Model and a Deep Convolutional Neural Network” (J Med Chem, 2020)
